Active and inactive are the calls of the source. The calls are words filed in the database; no cut-off is given here.
Legend:
Cavia porcellus [1] = test: Hypotensive activity at guinea pig assessed as decrease in blood pressure at 100 mg/kg, po after 1 hr; assay type: functional, organism-based; set-up: dose 100 mg/kg
Cavia porcellus [2] = test: Hypotensive activity at guinea pig assessed as decrease in blood pressure at 100 mg/kg, po after 5 hrs; assay type: functional, organism-based; set-up: dose 100 mg/kg
Cavia porcellus [3] = test: Hypotensive activity at guinea pig assessed as decrease in blood pressure at 100 mg/kg, po after 3 hrs; assay type: functional, organism-based; set-up: dose 100 mg/kg
Cavia porcellus [4] = organism: Cavia porcellus; test: Antagonist activity at guinea pig atrial beta adrenergic receptor assessed as isometric contractions at 5 x 10^-5 M by force displacement transducer; assay type: tissue-based; settings: Cardiac atrium
Cavia porcellus [5] = test: Hypotensive activity at guinea pig assessed as decrease in blood pressure at 50 mg/kg, po after 1 hr (reference value: 112 +/- 2.6 to 122 +/- 2.7 mmHg); assay type: functional
Cavia porcellus [6] = test: Hypotensive activity at guinea pig assessed as decrease in blood pressure at 50 mg/kg, po after 3 hrs (reference value: 112 +/- 2.6 to 122 +/- 2.7 mmHg); assay type: functional
Cavia porcellus [7] = test: Toxicity in guinea pig assessed as depression in heart beating rate at 50 mg/kg, po relative to control; assay type: organism-based; set-up: dose 50 mg/kg, route oral; settings: in vivo
Cavia porcellus [8] = test: Hypotensive activity at guinea pig assessed as decrease in blood pressure at 50 mg/kg, po after 5 hrs (reference value: 112 +/- 2.6 to 122 +/- 2.7 mmHg); assay type: functional
[9] = Antagonist activity at guinea pig atrial beta adrenergic receptor assessed as isometric contractions by force displacement transducer; assay type: tissue-based, Cavia porcellus, Cardiac atrium
Cavia porcellus [10] = test: Toxicity in guinea pig assessed as increase in heart beating rate at 50 mg/kg, po; assay type: organism-based; set-up: dose 50 mg/kg, route oral; settings: in vivo

With N=C(N)NCC(O)c1ccc2c(c1)OCO2 (stereo not given) the Activity (Cavia porcellus [1]) was “inactive”, the Activity (Cavia porcellus [2]) was “inactive” and the Activity (Cavia porcellus [3]) was “inactive”. The Activity (Cavia porcellus [4]) was “inactive”.

Work on CC(C)NC(C)C(O)c1ccc2c(c1)OCO2.Cl (stereo not given) yielded an Activity (Cavia porcellus [5]) of 92 mmHg, an Activity (Cavia porcellus [6]) of 91 mmHg and an Activity (Cavia porcellus [7]) of under 10%. For the same compound, the Activity (Cavia porcellus [8]) was 94 mmHg and the Activity (Cavia porcellus [4]) was “inactive”.

In the case of CC(C)(C)NCC(O)COC(=O)c1ccc2c(c1)OCO2.Cl (stereo not given), the Activity (Cavia porcellus [1]) is reported as “inactive”, the Activity (Cavia porcellus [2]) is reported as “inactive” and the Activity (Cavia porcellus [3]) is reported as “inactive”. For the same compound, the pA2 [9] was 6.9.

In the case of NNc1nncc2ccccc12, the Activity (Cavia porcellus [4]) is reported as “inactive”.

Compound CC(C)NCC(O)c1ccc2c(c1)OCO2.Cl (stereo not given) has an Activity (Cavia porcellus [5]) of 97 mmHg, an Activity (Cavia porcellus [6]) of 84 mmHg and an Activity (Cavia porcellus [8]) of 87 mmHg. For the same compound, the Activity (Cavia porcellus [10]) was 25% and the pA2 [9] was 6.2.

For CC(C)NCC(O)COc1cccc2ccccc12 (stereo not given) [PROPRANOLOL], the Activity (Cavia porcellus [5]) was 141 mmHg, the Activity (Cavia porcellus [6]) was 119 mmHg and the Activity (Cavia porcellus [8]) was 117 mmHg.

CC(C)(C)NCC(O)c1ccc2c(c1)OCO2.Cl (stereo not given) gave an Activity (Cavia porcellus [5]) of 83 mmHg, an Activity (Cavia porcellus [6]) of 77 mmHg and an Activity (Cavia porcellus [8]) of 77 mmHg. It also gave a pA2 [9] of 6.5.

For N=C(N)NCCc1ccc2c(c1)OCO2, the Activity (Cavia porcellus [1]) was “inactive”, the Activity (Cavia porcellus [2]) was “inactive” and the Activity (Cavia porcellus [3]) was “inactive”. For the same compound, the Activity (Cavia porcellus [4]) was “inactive”.

For CNCC(O)COC(=O)c1ccc2c(c1)OCO2.O=C(O)C(=O)O (stereo not given), the Activity (Cavia porcellus [1]) was “inactive”, the Activity (Cavia porcellus [7]) was under 10% and the Activity (Cavia porcellus [2]) was “inactive”. The Activity (Cavia porcellus [3]) was “inactive” and the pA2 [9] was 5.3.

CC(C)NCC(O)c1ccc(NS(C)(=O)=O)cc1 (stereo not given) [SOTALOL] gave an Activity (Cavia porcellus [5]) of 112 mmHg, an Activity (Cavia porcellus [6]) of 108 mmHg and an Activity (Cavia porcellus [8]) of 107 mmHg. It also gave a pA2 [9] of 6.8.

In the case of OC(CNC1=NCCN1)c1ccc2c(c1)OCO2 (stereo not given), the Activity (Cavia porcellus [1]) is reported as “inactive”, the Activity (Cavia porcellus [2]) is reported as “inactive” and the Activity (Cavia porcellus [3]) is reported as “inactive”. For the same compound, the Activity (Cavia porcellus [4]) was “inactive”.

For c1cc2c(cc1CCNC1=NCCN1)OCO2, the Activity (Cavia porcellus [1]) was “inactive”, the Activity (Cavia porcellus [2]) was “inactive” and the Activity (Cavia porcellus [3]) was “inactive”. The Activity (Cavia porcellus [4]) was “inactive”.

For CC(C)NCC(O)COC(=O)c1ccc2c(c1)OCO2.Cl (stereo not given), the Activity (Cavia porcellus [1]) was “inactive”, the Activity (Cavia porcellus [2]) was “inactive” and the Activity (Cavia porcellus [3]) was “inactive”. The pA2 [9] was 6.9.

With CC(C)NCC(O)/C=C/c1ccc2c(c1)OCO2 (stereo not given) the Activity (Cavia porcellus [1]) was “inactive”, the Activity (Cavia porcellus [2]) was “inactive” and the Activity (Cavia porcellus [3]) was “inactive”. The Activity (Cavia porcellus [4]) was “inactive”.

Reference: ChEMBL document CHEMBL3243918, “Synthesis and adrenergic beta-blocking activity of some 1,3-benzodioxole derivatives” (J Med Chem, 1977)
